Reference: the kinase profiling compilation of Christmann-Franck et al. (2016)
Blank lines part the entries; values can stand above or below the compound they belong to.

Tests used:
Experiment in all cases: radiometric filter-binding kinase assay
[1] = target: CHEK2 (human) (UniProt O96017)
[2] = target: CLK2 (human) (UniProt P49760)
[3] = target: DAPK1 (human) (UniProt P53355)
[4] = target: DYRK2 (human) (UniProt Q92630)
[5] = target: DYRK3 (human) (UniProt O43781)
[6] = target: EPHA2 (human) (UniProt P29317)
[7] = target: EPHB1 (human) (UniProt P54762)
[8] = target: EPHB2 (human) (UniProt P29323)
[9] = target: EPHB4 (human) (UniProt P54760)
[10] = target: FLT1 (human) (UniProt P17948)
[11] = target: GCK (human) (UniProt Q12851)
[12] = target: HIPK2 (human) (UniProt Q9H2X6)
[13] = target: IKBKE (human) (UniProt Q14164)
[14] = target: IRAK4 (human) (UniProt Q9NWZ3)
[15] = target: MAP3K7 TAB1 (human) (UniProt Q15750+O43318)
[16] = target: MAPK12 (human) (UniProt P53778)
[17] = target: MAPK14 (human) (UniProt Q16539)
[18] = target: MAPKAPK2 (human) (UniProt P49137)
[19] = target: MAPKAPK5 (human) (UniProt Q8IW41)
[20] = target: MARK1 (human) (UniProt Q9P0L2)
[21] = target: MARK2 (human) (UniProt Q7KZI7)
[22] = target: MELK (human) (UniProt Q14680)
[23] = target: MYLK (human) (UniProt Q15746)
[24] = target: NEK2 (human) (UniProt P51955)
[25] = target: PIM1 (human) (UniProt P11309)
[26] = target: PIM3 (human) (UniProt Q86V86)
[27] = target: PKN2 (human) (UniProt Q16513)
[28] = target: PRKCA (human) (UniProt P17252)
[29] = system: ROCK2 (rat); conditions: accession and sequence are those of the human protein
[30] = target: RPS6KA1 KD1 KD2 (human) (UniProt Q15418)
[31] = system: RPS6KB1 (human), P23443 [T412E]
[32] = system: SGK1 (human), O00141 [S422D]
[33] = target: STK3 (human) (UniProt Q13188)
[34] = target: TAOK1 (human) (UniProt Q7L7X3)
[35] = target: TTK (human) (UniProt P33981)

Sequence of MAPK14 (human) (Q16539 whole entry, looked up): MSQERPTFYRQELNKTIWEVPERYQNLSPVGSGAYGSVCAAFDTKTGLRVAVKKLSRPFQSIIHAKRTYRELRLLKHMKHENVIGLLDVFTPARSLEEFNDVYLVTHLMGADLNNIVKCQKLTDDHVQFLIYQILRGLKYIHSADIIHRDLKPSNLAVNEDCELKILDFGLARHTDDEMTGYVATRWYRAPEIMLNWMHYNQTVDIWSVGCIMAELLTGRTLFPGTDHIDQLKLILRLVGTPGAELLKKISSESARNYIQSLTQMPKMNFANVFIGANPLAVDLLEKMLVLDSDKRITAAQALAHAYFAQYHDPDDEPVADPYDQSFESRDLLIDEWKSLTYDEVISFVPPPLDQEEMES
Sequence of CLK2 (human) (P49760 whole entry, looked up): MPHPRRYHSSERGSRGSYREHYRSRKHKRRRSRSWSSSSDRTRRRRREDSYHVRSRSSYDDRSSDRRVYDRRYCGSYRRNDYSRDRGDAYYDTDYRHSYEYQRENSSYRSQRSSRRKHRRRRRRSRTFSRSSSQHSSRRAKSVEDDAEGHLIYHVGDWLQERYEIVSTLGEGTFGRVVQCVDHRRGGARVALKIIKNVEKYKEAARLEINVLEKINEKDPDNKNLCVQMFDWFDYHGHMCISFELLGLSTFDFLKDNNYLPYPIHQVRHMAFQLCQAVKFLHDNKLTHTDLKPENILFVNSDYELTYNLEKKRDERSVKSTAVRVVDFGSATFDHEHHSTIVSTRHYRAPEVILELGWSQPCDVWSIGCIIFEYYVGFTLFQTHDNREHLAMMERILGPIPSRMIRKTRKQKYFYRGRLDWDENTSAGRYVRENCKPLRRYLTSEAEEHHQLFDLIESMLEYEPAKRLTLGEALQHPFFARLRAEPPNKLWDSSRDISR
Sequence of PIM1 (human) (P11309 whole entry, looked up): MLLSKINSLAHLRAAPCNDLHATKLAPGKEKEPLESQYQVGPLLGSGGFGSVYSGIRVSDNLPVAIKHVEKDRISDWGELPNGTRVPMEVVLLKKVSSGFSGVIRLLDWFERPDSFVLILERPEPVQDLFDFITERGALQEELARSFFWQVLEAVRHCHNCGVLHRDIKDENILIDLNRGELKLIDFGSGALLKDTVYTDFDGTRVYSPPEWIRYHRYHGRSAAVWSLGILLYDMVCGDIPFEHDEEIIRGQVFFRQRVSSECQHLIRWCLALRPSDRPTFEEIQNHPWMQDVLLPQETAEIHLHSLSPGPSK
Sequence of DYRK3 (human) (O43781 whole entry, looked up): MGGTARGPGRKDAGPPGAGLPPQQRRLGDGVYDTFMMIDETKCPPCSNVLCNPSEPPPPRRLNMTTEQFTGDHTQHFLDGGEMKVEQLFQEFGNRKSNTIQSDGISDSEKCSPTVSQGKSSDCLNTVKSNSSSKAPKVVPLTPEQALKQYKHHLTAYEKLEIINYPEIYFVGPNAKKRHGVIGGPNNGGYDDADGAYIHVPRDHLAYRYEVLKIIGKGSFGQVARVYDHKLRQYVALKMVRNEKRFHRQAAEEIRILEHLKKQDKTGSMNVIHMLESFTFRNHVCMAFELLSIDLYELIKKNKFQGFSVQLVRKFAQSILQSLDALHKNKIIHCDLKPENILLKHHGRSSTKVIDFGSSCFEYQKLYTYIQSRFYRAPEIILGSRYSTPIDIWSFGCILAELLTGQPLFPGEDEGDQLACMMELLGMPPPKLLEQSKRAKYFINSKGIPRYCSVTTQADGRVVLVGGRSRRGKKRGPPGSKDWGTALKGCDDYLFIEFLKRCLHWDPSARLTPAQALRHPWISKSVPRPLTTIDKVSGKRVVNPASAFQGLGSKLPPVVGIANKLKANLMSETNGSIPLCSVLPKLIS
Sequence of EPHB4 (human) (P54760 whole entry, looked up): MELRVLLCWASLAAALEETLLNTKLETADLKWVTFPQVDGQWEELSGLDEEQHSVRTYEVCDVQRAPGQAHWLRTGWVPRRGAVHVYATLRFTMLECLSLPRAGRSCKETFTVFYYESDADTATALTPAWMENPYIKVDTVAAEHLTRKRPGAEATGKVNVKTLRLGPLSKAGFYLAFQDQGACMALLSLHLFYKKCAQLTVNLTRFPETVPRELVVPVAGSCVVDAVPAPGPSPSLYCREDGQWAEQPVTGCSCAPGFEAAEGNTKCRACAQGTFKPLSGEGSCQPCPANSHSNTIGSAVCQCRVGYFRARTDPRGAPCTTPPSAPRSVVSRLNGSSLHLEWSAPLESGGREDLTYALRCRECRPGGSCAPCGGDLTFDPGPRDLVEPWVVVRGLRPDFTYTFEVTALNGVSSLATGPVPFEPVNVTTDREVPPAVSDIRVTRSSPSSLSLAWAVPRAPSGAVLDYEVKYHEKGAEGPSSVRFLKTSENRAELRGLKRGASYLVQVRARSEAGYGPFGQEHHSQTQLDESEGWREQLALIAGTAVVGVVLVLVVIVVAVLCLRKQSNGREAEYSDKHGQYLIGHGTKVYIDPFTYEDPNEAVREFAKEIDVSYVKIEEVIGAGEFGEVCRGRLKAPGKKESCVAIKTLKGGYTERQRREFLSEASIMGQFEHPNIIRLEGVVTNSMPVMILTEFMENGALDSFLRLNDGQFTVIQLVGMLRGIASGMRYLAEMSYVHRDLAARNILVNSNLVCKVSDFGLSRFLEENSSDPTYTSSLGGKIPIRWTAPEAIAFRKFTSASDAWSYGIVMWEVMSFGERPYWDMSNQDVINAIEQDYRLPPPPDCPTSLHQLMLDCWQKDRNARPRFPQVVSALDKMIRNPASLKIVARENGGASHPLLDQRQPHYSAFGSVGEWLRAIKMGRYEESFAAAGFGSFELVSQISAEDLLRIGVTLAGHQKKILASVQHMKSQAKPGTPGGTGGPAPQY
Sequence of CHEK2 (human) (O96017 whole entry, looked up): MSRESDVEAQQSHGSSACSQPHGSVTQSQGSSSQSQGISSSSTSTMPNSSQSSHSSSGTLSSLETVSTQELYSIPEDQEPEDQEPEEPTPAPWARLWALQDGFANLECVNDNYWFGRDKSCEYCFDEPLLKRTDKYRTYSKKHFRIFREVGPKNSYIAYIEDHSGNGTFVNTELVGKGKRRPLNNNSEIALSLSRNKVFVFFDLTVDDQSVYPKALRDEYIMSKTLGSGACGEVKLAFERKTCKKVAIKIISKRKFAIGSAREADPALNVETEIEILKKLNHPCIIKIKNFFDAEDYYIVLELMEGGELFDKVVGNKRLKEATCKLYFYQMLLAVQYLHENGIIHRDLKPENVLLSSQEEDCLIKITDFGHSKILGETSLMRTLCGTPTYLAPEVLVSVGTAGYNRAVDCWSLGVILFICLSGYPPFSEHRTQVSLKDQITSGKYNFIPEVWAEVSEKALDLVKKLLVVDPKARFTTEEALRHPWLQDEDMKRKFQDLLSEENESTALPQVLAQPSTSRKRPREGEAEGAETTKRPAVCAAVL
Sequence of EPHB2 (human) (P29323 whole entry, looked up): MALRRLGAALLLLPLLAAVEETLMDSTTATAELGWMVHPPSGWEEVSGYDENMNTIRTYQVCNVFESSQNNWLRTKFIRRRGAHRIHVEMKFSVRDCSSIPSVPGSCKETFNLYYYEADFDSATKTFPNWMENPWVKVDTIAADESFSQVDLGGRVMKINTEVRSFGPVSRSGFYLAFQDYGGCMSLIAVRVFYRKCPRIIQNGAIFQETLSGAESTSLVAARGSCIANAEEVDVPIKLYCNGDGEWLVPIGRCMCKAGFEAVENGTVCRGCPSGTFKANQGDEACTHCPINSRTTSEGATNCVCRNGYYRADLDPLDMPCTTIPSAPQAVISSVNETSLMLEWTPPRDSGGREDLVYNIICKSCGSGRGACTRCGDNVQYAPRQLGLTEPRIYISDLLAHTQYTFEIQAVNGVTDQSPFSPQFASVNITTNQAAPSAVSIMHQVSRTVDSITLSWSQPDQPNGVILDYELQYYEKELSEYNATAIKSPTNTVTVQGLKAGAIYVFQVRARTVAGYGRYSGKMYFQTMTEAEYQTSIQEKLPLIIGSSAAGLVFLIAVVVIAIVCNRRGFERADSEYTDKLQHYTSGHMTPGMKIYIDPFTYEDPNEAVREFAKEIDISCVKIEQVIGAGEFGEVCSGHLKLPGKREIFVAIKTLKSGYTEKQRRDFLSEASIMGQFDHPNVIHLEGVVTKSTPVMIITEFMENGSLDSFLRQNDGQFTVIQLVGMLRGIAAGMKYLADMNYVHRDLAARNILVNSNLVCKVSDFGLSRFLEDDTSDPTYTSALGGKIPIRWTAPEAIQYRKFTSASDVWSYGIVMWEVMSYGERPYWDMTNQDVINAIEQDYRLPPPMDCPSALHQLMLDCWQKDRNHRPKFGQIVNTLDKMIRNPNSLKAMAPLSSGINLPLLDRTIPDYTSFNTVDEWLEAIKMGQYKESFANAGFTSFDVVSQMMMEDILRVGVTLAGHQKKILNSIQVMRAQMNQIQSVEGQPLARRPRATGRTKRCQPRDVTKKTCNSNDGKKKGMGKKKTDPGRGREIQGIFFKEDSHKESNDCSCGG

residual activity ([1]; compound 0.1 µM): 121%
residual activity ([1]; compound 1.0 µM): 96%
residual activity ([1]; compound 10.0 µM): 51%
residual activity ([2]; compound 1.0 µM): 98%
residual activity ([2]; compound 10.0 µM): 88%
residual activity ([3]; compound 1.0 µM): 35%
residual activity ([3]; compound 10.0 µM): 12%
residual activity ([4]; compound 0.01 µM): 100%
residual activity ([4]; compound 0.1 µM): 108%
residual activity ([4]; compound 1.0 µM): 97%
residual activity ([5]; compound 0.01 µM): 100%
residual activity ([5]; compound 0.1 µM): 103%
residual activity ([5]; compound 1.0 µM): 94%
residual activity ([5]; compound 10.0 µM): 88%
residual activity ([6]; compound 0.01 µM): 110%
residual activity ([6]; compound 0.1 µM): 118%
residual activity ([6]; compound 1.0 µM): 100%
residual activity ([6]; compound 10.0 µM): 84%
residual activity ([7]; compound 1.0 µM): 111%
residual activity ([7]; compound 10.0 µM): 118%
residual activity ([8]; compound 1.0 µM): 119%
residual activity ([8]; compound 10.0 µM): 111%
residual activity ([9]; compound 1.0 µM): 119%
residual activity ([9]; compound 10.0 µM): 117%
residual activity ([10]; compound 0.01 µM): 98%
residual activity ([10]; compound 0.1 µM): 108%
residual activity ([10]; compound 1.0 µM): 89%
residual activity ([10]; compound 10.0 µM): 64%
residual activity ([11]; compound 0.01 µM): 109%
residual activity ([11]; compound 0.1 µM): 116%
residual activity ([11]; compound 1.0 µM): 97%
residual activity ([11]; compound 10.0 µM): 86%
residual activity ([12]; compound 0.01 µM): 119%
residual activity ([12]; compound 0.1 µM): 124%
residual activity ([12]; compound 1.0 µM): 95%
residual activity ([12]; compound 10.0 µM): 113%
residual activity ([13]; compound 0.01 µM): 114%
residual activity ([13]; compound 0.1 µM): 97%
residual activity ([13]; compound 1.0 µM): 91%
residual activity ([13]; compound 10.0 µM): 45%
residual activity ([14]; compound 0.01 µM): 109%
residual activity ([14]; compound 0.1 µM): 112%
residual activity ([14]; compound 1.0 µM): 92%
residual activity ([14]; compound 10.0 µM): 99%
residual activity ([15]; compound 1.0 µM): 99%
residual activity ([15]; compound 10.0 µM): 79%
residual activity ([16]; compound 0.01 µM): 109%
residual activity ([16]; compound 0.1 µM): 110%
residual activity ([16]; compound 1.0 µM): 99%
residual activity ([16]; compound 10.0 µM): 110%
residual activity ([17]; compound 0.01 µM): 105%
residual activity ([17]; compound 0.1 µM): 109%
residual activity ([17]; compound 1.0 µM): 100%
residual activity ([17]; compound 10.0 µM): 99%
residual activity ([18]; compound 0.01 µM): 104%
residual activity ([18]; compound 0.1 µM): 111%
residual activity ([18]; compound 1.0 µM): 86%
residual activity ([18]; compound 10.0 µM): 84%
residual activity ([19]; compound 0.01 µM): 81%
residual activity ([19]; compound 0.1 µM): 92%
residual activity ([19]; compound 1.0 µM): 110%
residual activity ([19]; compound 10.0 µM): 95%
residual activity ([20]; compound 1.0 µM): 99%
residual activity ([20]; compound 10.0 µM): 84%
residual activity ([21]; compound 0.01 µM): 113%
residual activity ([21]; compound 0.1 µM): 114%
residual activity ([21]; compound 1.0 µM): 96%
residual activity ([21]; compound 10.0 µM): 102%
residual activity ([22]; compound 0.01 µM): 115%
residual activity ([22]; compound 0.1 µM): 77%
residual activity ([22]; compound 1.0 µM): 31%
residual activity ([22]; compound 10.0 µM): 22%
residual activity ([23]; compound 0.01 µM): 116%
residual activity ([23]; compound 0.1 µM): 113%
residual activity ([23]; compound 1.0 µM): 99%
residual activity ([23]; compound 10.0 µM): 62%
residual activity ([24]; compound 0.01 µM): 118%
residual activity ([24]; compound 0.1 µM): 118%
residual activity ([24]; compound 1.0 µM): 94%
residual activity ([24]; compound 10.0 µM): 91%
residual activity ([25]; compound 0.01 µM): 99%
residual activity ([25]; compound 0.1 µM): 100%
residual activity ([25]; compound 1.0 µM): 112%
residual activity ([25]; compound 10.0 µM): 93%
residual activity ([26]; compound 0.01 µM): 105%
residual activity ([26]; compound 0.1 µM): 112%
residual activity ([26]; compound 1.0 µM): 94%
residual activity ([26]; compound 10.0 µM): 73%
residual activity ([27]; compound 0.01 µM): 90%
residual activity ([27]; compound 0.1 µM): 102%
residual activity ([27]; compound 1.0 µM): 118%
residual activity ([27]; compound 10.0 µM): 81%
residual activity ([28]; compound 0.01 µM): 104%
residual activity ([28]; compound 0.1 µM): 105%
residual activity ([28]; compound 1.0 µM): 98%
residual activity ([28]; compound 10.0 µM): 96%
residual activity ([29]; compound 0.01 µM): 96%
residual activity ([29]; compound 0.1 µM): 92%
residual activity ([29]; compound 1.0 µM): 67%
residual activity ([29]; compound 10.0 µM): 27%
residual activity ([30]; compound 0.01 µM): 123%
residual activity ([30]; compound 0.1 µM): 113%
residual activity ([30]; compound 1.0 µM): 86%
residual activity ([30]; compound 10.0 µM): 40%
residual activity ([31]; compound 0.01 µM): 111%
residual activity ([31]; compound 0.1 µM): 106%
residual activity ([31]; compound 1.0 µM): 108%
residual activity ([31]; compound 10.0 µM): 81%
residual activity ([32]; compound 0.01 µM): 96%
residual activity ([32]; compound 0.1 µM): 96%
residual activity ([32]; compound 1.0 µM): 81%
residual activity ([32]; compound 10.0 µM): 37%
residual activity ([33]; compound 0.01 µM): 116%
residual activity ([33]; compound 0.1 µM): 128%
residual activity ([33]; compound 1.0 µM): 91%
residual activity ([33]; compound 10.0 µM): 84%
residual activity ([34]; compound 1.0 µM): 86%
residual activity ([34]; compound 10.0 µM): 96%
residual activity ([35]; compound 0.01 µM): 90%
residual activity ([35]; compound 0.1 µM): 98%
residual activity ([35]; compound 1.0 µM): 84%
residual activity ([35]; compound 10.0 µM): 61%
SMILES: CNc1nc(-c2ccc3c(N)n[nH]c3c2)cc(N2C[C@@H](C(=O)NC3CCCCC3)CC[C@H]2C)n1

residual activity ([1]; compound 0.1 µM): 48%
residual activity ([1]; compound 1.0 µM): 12%
residual activity ([2]; compound 0.1 µM): 30%
residual activity ([2]; compound 1.0 µM): 11%
residual activity ([3]; compound 0.1 µM): 51%
residual activity ([3]; compound 1.0 µM): 15%
residual activity ([4]; compound 0.1 µM): 50%
residual activity ([4]; compound 1.0 µM): 16%
residual activity ([5]; compound 1.0 µM): 10%
residual activity ([6]; compound 0.1 µM): 28%
residual activity ([7]; compound 0.1 µM): 8%
residual activity ([7]; compound 1.0 µM): 3%
residual activity ([8]; compound 0.1 µM): 23%
residual activity ([8]; compound 1.0 µM): 6%
residual activity ([9]; compound 0.1 µM): 69%
residual activity ([9]; compound 1.0 µM): 3%
residual activity ([10]; compound 0.1 µM): 5%
residual activity ([10]; compound 1.0 µM): 2%
residual activity ([11]; compound 0.1 µM): 29%
residual activity ([12]; compound 0.1 µM): 31%
residual activity ([12]; compound 1.0 µM): 10%
residual activity ([13]; compound 0.1 µM): 28%
residual activity ([13]; compound 1.0 µM): 18%
residual activity ([14]; compound 0.1 µM): 64%
residual activity ([14]; compound 1.0 µM): 20%
residual activity ([15]; compound 0.1 µM): 14%
residual activity ([15]; compound 1.0 µM): 19%
residual activity ([16]; compound 0.1 µM): 113%
residual activity ([16]; compound 1.0 µM): 95%
residual activity ([17]; compound 0.1 µM): 98%
residual activity ([17]; compound 1.0 µM): 85%
residual activity ([18]; compound 1.0 µM): 108%
residual activity ([19]; compound 0.1 µM): 98%
residual activity ([19]; compound 1.0 µM): 85%
residual activity ([20]; compound 0.1 µM): 63%
residual activity ([20]; compound 1.0 µM): 31%
residual activity ([21]; compound 0.1 µM): 67%
residual activity ([21]; compound 1.0 µM): 28%
residual activity ([22]; compound 0.1 µM): 37%
residual activity ([22]; compound 1.0 µM): 27%
residual activity ([23]; compound 0.1 µM): 100%
residual activity ([23]; compound 1.0 µM): 72%
residual activity ([24]; compound 0.1 µM): 22%
residual activity ([24]; compound 1.0 µM): 3%
residual activity ([25]; compound 0.1 µM): 96%
residual activity ([25]; compound 1.0 µM): 62%
residual activity ([26]; compound 0.1 µM): 91%
residual activity ([26]; compound 1.0 µM): 63%
residual activity ([27]; compound 0.1 µM): 57%
residual activity ([27]; compound 1.0 µM): 27%
residual activity ([28]; compound 0.1 µM): 95%
residual activity ([28]; compound 1.0 µM): 56%
residual activity ([29]; compound 0.1 µM): 49%
residual activity ([29]; compound 1.0 µM): 25%
residual activity ([30]; compound 1.0 µM): 7%
residual activity ([31]; compound 0.1 µM): 70%
residual activity ([31]; compound 1.0 µM): 28%
residual activity ([32]; compound 0.1 µM): 107%
residual activity ([32]; compound 1.0 µM): 61%
residual activity ([33]; compound 0.1 µM): 78%
residual activity ([34]; compound 0.1 µM): 95%
residual activity ([34]; compound 1.0 µM): 74%
residual activity ([35]; compound 0.1 µM): 81%
residual activity ([35]; compound 1.0 µM): 64%
SMILES: COc1ccc(-n2ncc3cnc(Nc4cc(OC)c(OC)c(OCCCN5CCN(C)CC5)c4)nc32)cc1
